Key:
[1] = system: corn; experiment: preemergence herbicidal activity on corn; type: in vivo, Zea mays var. Pioneer 3732; conditions: Zea mays, pre-emergence, 0.3 Kg/Ha, after 12-17 days, read-out: PREEMERGENCE HERBICIDAL ACTIVITY (% CONTROL) CRN
Experimental: (§1) The (oxaalkyl)phenyl-substituted heterocycles of this invention were tested for pre- and postemergence herbicidal activity using a variety of crops and weeds. The test plants included soybean (Glycine max var. Winchester),field corn (Zea mays var. Pioneer 3732), wheat (Triticum aestivum var. Lew), morningglory (Ipomea lacunosa or Ipomea hederacea), […] (Abutilon theophrasti), green foxtail (Setaria viridis), Johnsongrass (Sorghum halepense), blackgrass (Aloepecurus myosuroides), common chickweed (Stellaria media), and common cocklebur (Xanthium strumarium L.).
(§2) For preemergence testing, two disposable fiber flats (8 cm×15 cm×25 cm) for each rate of application of each candidate herbicide were filled to an approximate depth of 6.5 cm with steam-sterilized sandy loam soil. The soil was leveled and impressed with a template to provide five evenly spaced furrows 13 cm long and 0.5 cm deep in each flat. Seeds of soybean, wheat, corn, green foxtail, and johnsongrass were planted in the furrows of the first flat, and seeds of velvetleaf, morningglory, common chickweed, cocklebur, and blackgrass were planted in the furrows of the second flat. The five-row template was employed to firmly press the seeds into place. A topping soil of equal portions of sand and sandy loam soil was placed uniformly on top of each flat to a depth of approximately 0.5 cm. Flats for postemergence testing were prepared in the same manner except that they were planted 9-14 days prior to the preemergence flats and were placed in a greenhouse and watered, thus allowing the seeds to germinate and the foliage to develop.
(§3) In both pre- and postemergence tests, a stock solution of the candidate herbicide was prepared by dissolving 0.27 g of the compound in 20 mL of water/acetone (50/50) containing 0.5% v/v sorbitan monolaurate. For an application rate of 3000 g/ha of herbicide a 10 mL portion of the stock solution was diluted with water/acetone (50/50) to 45 mL.
(§4) The preemergence flats were initially subjected to a light water spray. The four flats were placed two by two along a conveyor belt (i.e., the two preemergence followed by the two postemergence flats). The conveyor belt fed under a spray nozzle mounted about ten inches above the postemergent foliage. The preemergent flats were elevated on the belt so that the soil surface was at the same level below the spray nozzle as the foliage canopy of the postemergent plants. The spray of herbicidal solution was commenced and once stabilized, the flats were passed under the spray at a speed to receive a coverage equivalent of 1000 L/ha. At this coverage the application rates are those shown in the above table for the individual herbicidal solutions. The preemergence flats were watered immediately thereafter, placed in the greenhouse and watered regularly at the soil surface. The postemergence flats were immediately placed in the green-house and not watered until 24 hours after treatment with the test solution. Thereafter they were regularly watered at ground level. After 12-17 days the plants were examined and the phytotoxicity data were recorded.
(§5) Phytotoxicity data were taken as percent control. Percent control was by a method similar to the 0 to 1 00 rating system disclosed in "Research Methods in Weed Science," 2nd ed., B. Truelove, Ed.; Southern Weed Science Society; Auburn University, Auburn, Ala., 1977.

[2] = system: blackgrass; experiment: preemergence herbicidal activity on blackgrass; type: in vivo, Aloepecurus myosuroides; conditions: Alopecurus myosuroides, pre-emergence, 0.3 Kg/Ha, after 12-17 days, read-out: PREEMERGENCE HERBICIDAL ACTIVITY (% CONTROL) ALOMY
Experimental: as §1, §2, §3, §4, §5

[3] = system: wheat; experiment: postemergence herbicidal activity on wheat; type: in vivo, Triticum aestivum var. Lew; conditions: Triticum aestivum, post-emergence, 0.3 Kg/Ha, after 12-17 days, read-out: POSTEMERGENCE HERBICIDAL ACTIVITY (% CONTROL) WHT
Experimental: as §1, §2, §3, §4, §5

[4] = system: johnsongrass; experiment: postemergence herbicidal activity on johnsongrass; type: in vivo; conditions: Sorghum halepense, post-emergence, 0.3 Kg/Ha, after 12-17 days, read-out: POSTEMERGENCE HERBICIDAL ACTIVITY (% CONTROL) SORHA
Experimental: as §1, §2, §3, §4, §5

[5] = system: velvetleaf; experiment: postemergence herbicidal activity on velvetleaf; type: in vivo; conditions: Abutilon theophrasti, post-emergence, 0.3 Kg/Ha, after 12-17 days, read-out: POSTEMERGENCE HERBICIDAL ACTIVITY (% CONTROL) ABUTH
Experimental: as §1, §2, §3, §4, §5

[6] = system: velvetleaf; experiment: preemergence herbicidal activity on velvetleaf; type: in vivo; conditions: Abutilon theophrasti, pre-emergence, 0.3 Kg/Ha, after 12-17 days, read-out: PREEMERGENCE HERBICIDAL ACTIVITY (% CONTROL) ABUTH
Experimental: as §1, §2, §3, §4, §5

[7] = system: soybean; experiment: preemergence herbicidal activity on soybean; type: in vivo, Glycine max var. Winchester; conditions: Glycine max, pre-emergence, 0.3 Kg/Ha, after 12-17 days, read-out: PREEMERGENCE HERBICIDAL ACTIVITY (% CONTROL) SOY
Experimental: as §1, §2, §3, §4, §5

[8] = system: morningglory; experiment: preemergence herbicidal activity on morningglory; type: in vivo, Ipomea lacunosa or Ipomea hederacea; conditions: Ipomoea, pre-emergence, 0.3 Kg/Ha, after 12-17 days, read-out: PREEMERGENCE HERBICIDAL ACTIVITY (% CONTROL) IPOSS
Experimental: as §1, §2, §3, §4, §5

[9] = system: chickweed; experiment: preemergence herbicidal activity on chickweed; type: in vivo; conditions: Stellaria media, pre-emergence, 0.3 Kg/Ha, after 12-17 days, read-out: PREEMERGENCE HERBICIDAL ACTIVITY (% CONTROL) STEME
Experimental: as §1, §2, §3, §4, §5

[10] = system: chickweed; experiment: postemergence herbicidal activity on chickweed; type: in vivo; conditions: Stellaria media, post-emergence, 0.3 Kg/Ha, after 12-17 days, read-out: POSTEMERGENCE HERBICIDAL ACTIVITY (% CONTROL) STEME
Experimental: as §1, §2, §3, §4, §5

[11] = system: johnsongrass; experiment: preemergence herbicidal activity on johnsongrass; type: in vivo; conditions: Sorghum halepense, pre-emergence, 0.3 Kg/Ha, after 12-17 days, read-out: PREEMERGENCE HERBICIDAL ACTIVITY (% CONTROL) SORHA
Experimental: as §1, §2, §3, §4, §5

[12] = system: wheat; experiment: preemergence herbicidal activity on wheat; type: in vivo, Triticum aestivum var. Lew; conditions: Triticum aestivum, pre-emergence, 0.3 Kg/Ha, after 12-17 days, read-out: PREEMERGENCE HERBICIDAL ACTIVITY (% CONTROL) WHT
Experimental: as §1, §2, §3, §4, §5

[13] = system: blackgrass; experiment: postemergence herbicidal activity on blackgrass; type: in vivo, Aloepecurus myosuroides; conditions: Alopecurus myosuroides, post-emergence, 0.3 Kg/Ha, after 12-17 days, read-out: POSTEMERGENCE HERBICIDAL ACTIVITY (% CONTROL) ALOMY
Experimental: as §1, §2, §3, §4, §5

[14] = system: morningglory; experiment: postemergence herbicidal activity on morningglory; type: in vivo, Ipomea lacunosa or Ipomea hederacea; conditions: Ipomoea, post-emergence, 0.3 Kg/Ha, after 12-17 days, read-out: POSTEMERGENCE HERBICIDAL ACTIVITY (% CONTROL) IPOSS
Experimental: as §1, §2, §3, §4, §5

[15] = system: corn; experiment: postemergence herbicidal activity on corn; type: in vivo, Zea mays var. Pioneer 3732; conditions: Zea mays, post-emergence, 0.3 Kg/Ha, after 12-17 days, read-out: POSTEMERGENCE HERBICIDAL ACTIVITY (% CONTROL) CRN
Experimental: as §1, §2, §3, §4, §5

[16] = system: green foxtail; experiment: preemergence herbicidal activity on green foxtail; type: in vivo; conditions: Setaria viridis, pre-emergence, 0.3 Kg/Ha, after 12-17 days, read-out: PREEMERGENCE HERBICIDAL ACTIVITY (% CONTROL) SETVI
Experimental: as §1, §2, §3, §4, §5

[17] = system: cocklebur; experiment: postemergence herbicidal activity on cocklebur; type: in vivo, Xanthium strumarium L.; conditions: Xanthium strumarium, post-emergence, 0.3 Kg/Ha, after 12-17 days, read-out: POSTEMERGENCE HERBICIDAL ACTIVITY (% CONTROL) XANPE
Experimental: as §1, §2, §3, §4, §5

[18] = system: green foxtail; experiment: postemergence herbicidal activity on green foxtail; type: in vivo; conditions: Setaria viridis, post-emergence, 0.3 Kg/Ha, after 12-17 days, read-out: POSTEMERGENCE HERBICIDAL ACTIVITY (% CONTROL) SETVI
Experimental: as §1, §2, §3, §4, §5

[19] = system: soybean; experiment: postemergence herbicidal activity on soybean; type: in vivo, Glycine max var. Winchester; conditions: Glycine max, post-emergence, 0.3 Kg/Ha, after 12-17 days, read-out: POSTEMERGENCE HERBICIDAL ACTIVITY (% CONTROL) SOY
Experimental: as §1, §2, §3, §4, §5

Compound | activity at 300 g/ha [1] [%] | activity at 300 g/ha [2] [%] | activity at 300 g/ha [3] [%] | activity at 300 g/ha [4] [%] | activity at 300 g/ha [5] [%] | activity at 300 g/ha [6] [%] | activity at 300 g/ha [7] [%] | activity at 300 g/ha [8] [%] | activity at 300 g/ha [9] [%] | activity at 300 g/ha [10] [%] | activity at 300 g/ha [11] [%] | activity at 300 g/ha [12] [%] | activity at 300 g/ha [13] [%] | activity at 300 g/ha [14] [%] | activity at 300 g/ha [15] [%] | activity at 300 g/ha [16] [%] | activity at 300 g/ha [17] [%] | activity at 300 g/ha [18] [%] | activity at 300 g/ha [19] [%]
CNC(=O)OCC(Cl)Cc1cc(-n2nc(C)n(C(F)F)c2=O)c(F)cc1Cl (stereo not drawn) [Compound 31, 2-CHLORO-1-[2-CHLORO-4-FLUORO-5-[4DIFLUOROMETHYL-4,5-DIHYDRO-3-METHYL-1,2,4-TRIAZOL-5(1H)-ON-1-YL]PHENYL]PROPAN-3-YL METHYLCARBAMATE] | 90 | 70 | 50 | 100 | 100 | 100 | 100 | 100 | 100 | 100 | 100 | 70 | 75 | 100 | 85 | 100 | 100 | 100 | 95
CCNC(=O)OCC(Cl)Cc1cc(-n2nc(C)n(C(F)F)c2=O)c(F)cc1Cl (stereo not drawn) [Compound 32] | 70 | 75 | 40 | 90 | 100 | 100 | 100 | 95 | 90 | 100 | 95 | 40 | 70 | 95 | 80 | 100 | 100 | 100 | 95
Cc1nn(-c2cc(CC(Cl)COC(=O)NC(C)(C)C)c(Cl)cc2F)c(=O)n1C(F)F (stereo not drawn) [Compound 33] | 80 | 70 | 40 | 80 | 100 | 100 | 60 | 70 | 90 | 80 | 80 | 20 | 60 | 100 | 80 | 100 | 100 | 100 | 90
